Source: patent US20210093531A1, “DERIVATIVES OF MENTHOL AND USES THEREOF” (Board of Trustees of Northern Illinois University, priority 2019, published 2021)
Entries after “also recorded” stand apart in the source; their conditions may differ. Marks after values point to notes of the source that are not given here.

Legend:
[1] = organoleptic evaluation in ethanol, propylene glycol and water; format: in vivo; conditions: for organoleptic properties, EtOH / organoleptic properties, PG / organoleptic properties (entry names no solvent): 100 ppm; for organoleptic properties, EtOH: ethanol cut in aqueous solution; for organoleptic properties, PG: propylene glycol cut in aqueous solution; for organoleptic properties (entry names no solvent): entry without solvent suffix
Protocol: Stock solutions for each solution was prepared as described below to afinal concentration of 100 ppm.
c. Mix well to achieve final concentration of 100 ppm.
a. Prepare a stock solution of 2.5% solution in PG by adding 25 mg of menthol analog in 1 gram of PG (mix well).
Organoleptic properties by compound are listed below for menthol derivatives in ethanol, propylene glycol, and water: […]

trained panelists = assay: time-intensity analysis of cooling, lozenge application; format: in vivo; conditions: 4-minute window
Protocol: In order to evaluate the potential use of menthol glycinates as […] different food, beverage and oral hygiene products, select compounds were incorporated in different application systems. A beverage model system, a lozenge and a mouthwash application were created, and time-intensity analysis was performed using trained discrimination analysis panelists. Time-Intensity (TI) is a temporal sensory method. During TI evaluations, assessors are asked to score the intensity of perception of a single attribute over consumption of the product. Compared to single point measurements, TI analysis can characterize the onset, decline and rates thereof, of particular sensory characteristics. This analysis may reveal rich information regarding the intensity of an attribute over the time domain and identify temporal perceptual differences among samples that can greatly impact the overall profile of a product. For each sample evaluation, a temporal curve is generated, based on duplication. The temporal curves for each panelist are combined to generate a combined curve for each product that is evaluated. The following distinct parameters were calculated: Imax: peak intensity or maximum observed intensity on the whole curve; […]: time point where the reaction to the stimulus is first perceived on the curve; Tmax: time position of the peak intensity on the curve; Tplateau: protraction of maximum intensity or duration of maximum intensity; Text: time point of extinction of the perception of the stimulus, defined as the position in time after the peak intensity where the measured intensity disappears (or the end of evaluation window); Iext: intensity at time of extinction or end of evaluation; R increase: slope or rate of intensity increase between […] and Tmax; R decrease: slope or rate of intensity decrease between Tmax and Text; and Area: the total area under the time-intensity curve. The formula detailed in Table 4 was employed to create the lozenge application to evaluate menthol glycinates of interest using time-intensity analysis. [table] For time-intensity (T-I) evaluation of the cooling intensity of lozenges, 9 panelists were recruited (3 male, 6 female). Panelists were trained in basic taste descriptive analysis. A sweetness reference series (intensity range 2-12) was provided to be used as cross-modality reference to aid in scaling the intensity of the cool attribute present in the lozenge samples. Panelists evaluated samples in duplicates and all samples were presented blinded and in a randomized order using a 3-digit code. Panelists were instructed to provide cooling intensity at predetermined time points throughout an evaluation window of 4 minutes. […] Evaluations were performed with at least 4 hours between them to ensure no carry over. Data analysis for generation of T-I statistics and ANOVA analysis to determine significant difference among samples was performed using R STUDIO.

[2] = taste dilution tests; cited from earlier work

(1R,2S,5R)-2-Isopropyl-5-methylcyclohexyl 2-(isopropylamino)acetate [Product 7]
organoleptic properties, EtOH ([1]; listed as XI-1-60): cooling started at 20 seconds with slight alcohol; also recorded: burn, very intense cooling profile from 20 seconds
organoleptic properties, PG ([1]; listed as XI-1-60): Up front cooling at 10 seconds with stronger cooling; also recorded: at 20 seconds, much more intense cooling than XI-
RInc (rate of intensity increase) (trained panelists): 0.041^ab
Tmax (time of peak intensity) (trained panelists): 210.00^a

CC1CCC(C(C)C)C(O)C1 (stereo not drawn) [Menthol, menthol]
cooling threshold [2]: 0.8 ppm
organoleptic properties of menthol ([1]; simple solutions of PG and water or ethanol): very strong, instantaneous cooling effect
Imax (peak cooling intensity) (trained panelists; 0.05 g test compound per 100 g, 2 g sample, 9 panelists): 11.53^bc^
AUC (total area under time-intensity curve) (trained panelists): 2064.83^b
RDec (rate of intensity decrease) (trained panelists): 0.056^b
RInc (rate of intensity increase) (trained panelists): 0.053^b
Tmax (time of peak intensity) (trained panelists): 180.00^b
Tstart (time cooling first perceived) (trained panelists): 5.00^b

CC(C)[C@@H]1CC[C@@H](C)C[C@H]1OC(=O)CN(C)C(C)C [Product 16, (1R,2S,5R)-2-Isopropyl-5-methylcyclohexyl 2-(isopropyl(methyl)amino)acetate]
organoleptic properties, EtOH ([1]; listed as XI-1-50): initial alcohol cooling burn with late onset cooling; also recorded: at 20 seconds and deep cooling at 60 seconds
organoleptic properties, PG ([1]; listed as XI-1-50): initial bitterness from PG cooling at 30 seconds
organoleptic properties (entry names no solvent) ([1]; listed as XI-1-50): slight delay in cooling after 20 seconds with some; also recorded: upfront bitterness coming from PG. Very intense; also recorded: building cooling post 50 seconds
Tmax (time of peak intensity) (trained panelists): 204.71^a
Tstart (time cooling first perceived) (trained panelists): 7.85^ac

CCCCN(CCCC)CC(=O)O[C@@H]1C[C@H](C)CC[C@H]1C(C)C [Product 10, (1R,2S,5R)-2-Isopropyl-5-methylcyclohexyl 2-(dibutylamino)acetate]
organoleptic properties, EtOH ([1]; listed as RK-2-10): delay onset mild cooling (post 20 seconds) with a; also recorded: slight tingling and sweetness that extended past 1
organoleptic properties, PG ([1]; listed as RK-2-10): Very low intensity of cooling that slowly builds with; also recorded: a skin tingling effect. Could be a good candidate
organoleptic properties (entry names no solvent) ([1]; listed as RK-2-10): exhibited a delayed onset cooling and an upfront; also recorded: bitterness from PG
Tmax (time of peak intensity) (trained panelists): 210.00^a
